Article PMC10746543, “Design principles for cyclin K molecular glue degraders” (Nature Chemical Biology, 2023)
“And” between values parts separate entries of the source, which are not always exact repeats. Identical values can stand only once. Like-named read-outs stand apart in the source and are kept apart here. Each block holds one molecule with its values, some of them ahead of it.

Assays:
HEK293T cells = experiment: Drug sensitivity assay (CellTiter-Glo viability) with or without MLN4924 pretreatment; assay type: cell-based, human; conditions: Supplementary Table 2; for EC50: Homo sapiens, HEK-293T, HEK293T viability, 72 h, compound alone, read-out: Cellular assays EC50; for Toxicity rescue: MLN4924-mediated cytotoxicity rescue, 10 µM used where n.d.
Method in brief: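 First, cells (HEK293T–Cas9, 0.15 × 10^6 ml^−1) are exposed to DMSO or 100 nM MLN4924. Next, drugs follow at 2 h. Finally, CellTiter-Glo is read at day 3 and normalised to DMSO.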

CDK12–cyclin K and DDB1 = biological target: T1, CDK12–cyclin K and DDB1 (Homo sapiens, UniProt Q16531+Q9NYV4, K965R); experiment: TR-FRET ternary complex formation assay (compound titration); assay type: binding; conditions: for TR-FRET signal at compound concentration: replicate titrations
T1 construct: His6–CDK12 (a.a. 713–1,052); full-length or beta-propeller B domain deletion (ΔBPB: a.a. 396–705 deleted) constructs of His6–DDB1ΔBPB, StrepII–Avi–DDB1, or His6–Spy–DDB1; made in house; host or cells: Trichoplusia ni High Five insect cells (baculovirus)
T1 sequence (Q9NYV4 713-1052 K965R): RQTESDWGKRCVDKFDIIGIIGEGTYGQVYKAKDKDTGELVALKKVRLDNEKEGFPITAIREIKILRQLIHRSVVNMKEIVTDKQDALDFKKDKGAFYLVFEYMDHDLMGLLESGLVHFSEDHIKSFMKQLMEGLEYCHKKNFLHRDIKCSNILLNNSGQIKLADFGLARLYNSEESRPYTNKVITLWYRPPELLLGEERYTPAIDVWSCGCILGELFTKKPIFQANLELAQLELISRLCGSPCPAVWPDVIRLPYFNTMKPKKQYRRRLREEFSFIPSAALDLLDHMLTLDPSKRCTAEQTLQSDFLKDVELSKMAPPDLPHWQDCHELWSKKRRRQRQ
T1 sequence (O75909 1-267 partner): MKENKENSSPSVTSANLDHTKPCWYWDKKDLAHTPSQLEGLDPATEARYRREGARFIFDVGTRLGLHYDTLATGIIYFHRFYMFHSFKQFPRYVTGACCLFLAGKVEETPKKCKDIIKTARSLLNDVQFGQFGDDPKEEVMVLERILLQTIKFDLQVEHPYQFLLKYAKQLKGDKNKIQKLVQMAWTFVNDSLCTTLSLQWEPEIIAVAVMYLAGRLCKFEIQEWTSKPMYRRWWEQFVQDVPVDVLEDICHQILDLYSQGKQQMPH
T1 sequence (Q16531 whole entry): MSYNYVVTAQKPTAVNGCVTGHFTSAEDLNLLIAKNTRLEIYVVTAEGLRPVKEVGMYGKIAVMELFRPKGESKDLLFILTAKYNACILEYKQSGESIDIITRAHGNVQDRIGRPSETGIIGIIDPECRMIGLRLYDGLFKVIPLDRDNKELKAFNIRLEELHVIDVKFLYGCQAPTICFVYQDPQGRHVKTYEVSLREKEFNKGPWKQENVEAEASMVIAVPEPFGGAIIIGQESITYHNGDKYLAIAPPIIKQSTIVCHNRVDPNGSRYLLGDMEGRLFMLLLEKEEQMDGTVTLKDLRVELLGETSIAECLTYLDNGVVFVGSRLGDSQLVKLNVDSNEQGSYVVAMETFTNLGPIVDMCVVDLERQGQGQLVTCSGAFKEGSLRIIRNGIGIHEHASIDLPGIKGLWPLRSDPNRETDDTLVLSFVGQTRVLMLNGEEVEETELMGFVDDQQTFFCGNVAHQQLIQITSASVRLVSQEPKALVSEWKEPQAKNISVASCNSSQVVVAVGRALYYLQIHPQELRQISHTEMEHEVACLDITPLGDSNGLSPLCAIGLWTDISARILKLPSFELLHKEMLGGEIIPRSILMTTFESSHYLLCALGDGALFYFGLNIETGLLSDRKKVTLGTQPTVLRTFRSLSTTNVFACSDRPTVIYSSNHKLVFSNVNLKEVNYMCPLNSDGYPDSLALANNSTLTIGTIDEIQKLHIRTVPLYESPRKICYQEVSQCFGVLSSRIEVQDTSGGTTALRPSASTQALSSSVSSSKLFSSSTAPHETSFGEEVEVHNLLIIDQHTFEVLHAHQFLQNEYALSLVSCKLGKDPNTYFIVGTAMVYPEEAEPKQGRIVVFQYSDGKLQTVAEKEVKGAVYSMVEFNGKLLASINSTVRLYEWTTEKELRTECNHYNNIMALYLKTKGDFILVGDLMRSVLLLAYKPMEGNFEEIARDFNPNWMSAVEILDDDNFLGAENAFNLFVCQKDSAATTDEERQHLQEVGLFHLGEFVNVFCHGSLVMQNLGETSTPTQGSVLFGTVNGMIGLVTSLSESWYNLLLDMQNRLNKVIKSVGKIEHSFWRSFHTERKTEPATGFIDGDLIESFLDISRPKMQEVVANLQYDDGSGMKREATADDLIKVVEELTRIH
Method in brief: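 Background fluorescence is reduced by reading 70 μs after excitation, and complex formation is followed as the 520:490 nm fluorescence ratio.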

[1] = test system: cyclin K–eGFP degradation reporter; experiment: Cyclin K reporter stability analysis (dual-color cyclin K–eGFP reporter); assay type: cell-based, human
Method in brief: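 Readout was the eGFP-to-mCherry geometric-mean ratio by flow cytometry, normalized to three DMSO controls, after 5 h drug exposure. Cells used were HEK293T–Cas9 expressing the dual-colour cyclin K–eGFP degradation reporter.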

[2] = compound concentration 79.2001 nM
[3] = compound concentration 158.4 nM
[4] = compound concentration 309.6 nM
[5] = compound concentration 626.401 nM
[6] = compound concentration 1252.8 nM
[7] = compound concentration 9936.01 nM
[8] = compound concentration 20016 nM
[9] = sheet MOESM7, read-out: log TR-FRET EC50 (converted)
[10] = in vitro complex formation, 50 nM CDK12–cyclin K, 100 nM DDB1, text and figures, read-out: TR-FRET EC50
[11] = source data sheet correlations, read-out: TR-FRET EC50
[12] = source data sheet correlations, read-out: DC50

TR-FRET signal (CDK12–cyclin K and DDB1; compound concentration 4.68 nM): 0.2076 and 0.2321 | TR-FRET signal (CDK12–cyclin K and DDB1; compound concentration 21.6 nM): 0.2226 and 0.2483 | TR-FRET signal (CDK12–cyclin K and DDB1; compound concentration 36 nM): 0.2561 and 0.2746 | TR-FRET signal (CDK12–cyclin K and DDB1; [2]): 0.3133 and 0.3047 | TR-FRET signal (CDK12–cyclin K and DDB1; [3]): 0.4014 and 0.4131 | TR-FRET signal (CDK12–cyclin K and DDB1; [4]): 0.5676 and 0.5799 | TR-FRET signal (CDK12–cyclin K and DDB1; [5]): 0.7977 and 0.8028 | TR-FRET signal (CDK12–cyclin K and DDB1; [6]): 1.088 and 1.118 | TR-FRET signal (CDK12–cyclin K and DDB1; compound concentration 2448 nM): 1.44 and 1.508 | TR-FRET signal (CDK12–cyclin K and DDB1; [7]): 1.852 and 2.056 | TR-FRET signal (CDK12–cyclin K and DDB1; [8]): 1.876 and 2.063 | EC50 (CDK12–cyclin K and DDB1; [9]): 1.3 µM | DC50 ([1]; Supplementary Table 2, HEK293T cycK-eGFP reporter, 5 h, read-out: Cellular assays DC50): > 10 µM
Compound: CC[C@H](CO)Nc1nc(NCCOCc2ccccc2)c2ncn(C(C)C)c2n1 [DS40]
EC50 (HEK293T cells): > 10 µM | Toxicity rescue (HEK293T cells): 0%

fold lower affinity than DS11 (CDK12–cyclin K and DDB1; TR-FRET complex formation): 5-10 fold | TR-FRET signal at compound concentration (CDK12–cyclin K and DDB1; compound concentration 4.68 nM): 0.1674 and 0.1915 | TR-FRET signal at compound concentration (CDK12–cyclin K and DDB1; compound concentration 21.6 nM): 0.2669 and 0.3147 | TR-FRET signal at compound concentration (CDK12–cyclin K and DDB1; compound concentration 36 nM): 0.462 and 0.5388 | TR-FRET signal at compound concentration (CDK12–cyclin K and DDB1; [2]): 0.7422 and 0.8389 | TR-FRET signal at compound concentration (CDK12–cyclin K and DDB1; [3]): 1.142 and 1.242 | TR-FRET signal at compound concentration (CDK12–cyclin K and DDB1; [4]): 1.648 and 1.83 | TR-FRET signal at compound concentration (CDK12–cyclin K and DDB1; [5]): 2.134 and 2.344 | TR-FRET signal at compound concentration (CDK12–cyclin K and DDB1; [6]): 2.523 and 2.691 | TR-FRET signal at compound concentration (CDK12–cyclin K and DDB1; compound concentration 2448 nM): 2.757 and 2.986 | TR-FRET signal at compound concentration (CDK12–cyclin K and DDB1; [7]): 2.985 and 3.212 | TR-FRET signal at compound concentration (CDK12–cyclin K and DDB1; [8]): 3.04 and 3.2335 | EC50 (CDK12–cyclin K and DDB1; [10]): 0.285 ± 0.019 µM | EC50 (CDK12–cyclin K and DDB1; [9]): 0.285 µM | EC50 (CDK12–cyclin K and DDB1; [11]): 0.285 µM | DC50 [1, 12]: 1.78 µM
Compound: CC[C@H](CO)Nc1nc(NCCCCCc2ccccc2)c2ncn(C(C)C)c2n1 [DS02]
EC50 (HEK293T cells): > 10 µM | Toxicity rescue (HEK293T cells): 0%

TR-FRET signal at compound concentration 0.468 nM (CDK12–cyclin K and DDB1; raw replicate titration data): 0.2681 and 0.2803 | TR-FRET signal at compound concentration 2.16 nM (CDK12–cyclin K and DDB1; raw replicate titration data): 0.3056 and 0.3131 | TR-FRET signal at compound concentration 3.6 nM (CDK12–cyclin K and DDB1; raw replicate titration data): 0.3611 and 0.3774 | TR-FRET signal at compound concentration 7.92001 nM (CDK12–cyclin K and DDB1; raw replicate titration data): 0.4715 and 0.4922 | TR-FRET signal at compound concentration 15.84 nM (CDK12–cyclin K and DDB1; raw replicate titration data): 0.6621 and 0.6827 | TR-FRET signal at compound concentration 30.96 nM (CDK12–cyclin K and DDB1; raw replicate titration data): 1.043 and 1.045 | TR-FRET signal at compound concentration 62.6401 nM (CDK12–cyclin K and DDB1; raw replicate titration data): 1.709 and 1.668 | TR-FRET signal at compound concentration 125.28 nM (CDK12–cyclin K and DDB1; raw replicate titration data): 2.476 and 2.42 | TR-FRET signal at compound concentration 244.8 nM (CDK12–cyclin K and DDB1; raw replicate titration data): 2.963 and 3.026 | TR-FRET signal at compound concentration 993.601 nM (CDK12–cyclin K and DDB1; raw replicate titration data): 3.269 and 3.459 | TR-FRET signal at compound concentration 2001.6 nM (CDK12–cyclin K and DDB1; raw replicate titration data): 3.336 and 3.495 | EC50 (CDK12–cyclin K and DDB1; [10]): 0.072 ± 0.005 µM | EC50 (CDK12–cyclin K and DDB1; [9]): 0.0723 µM | EC50 (CDK12–cyclin K and DDB1; [11]): 0.0723 µM | DC50 [1, 12]: 0.587 µM
Compound: Cn1cc(-n2cnc3c(NCc4nc5cc(Cl)c(Cl)cc5[nH]4)nc(NCCc4cn[nH]c4)nc32)cn1 [DS57]
EC50 (HEK293T cells): > 10 µM | Toxicity rescue (HEK293T cells): 0%

TR-FRET signal at compound concentration 0.468 nM (CDK12–cyclin K and DDB1; raw titration data): 0.2618 and 0.2852 | TR-FRET signal at compound concentration 2.16 nM (CDK12–cyclin K and DDB1; raw titration data): 0.3231 and 0.3368 | TR-FRET signal at compound concentration 3.6 nM (CDK12–cyclin K and DDB1; raw titration data): 0.3927 and 0.4029 | TR-FRET signal at compound concentration 7.92001 nM (CDK12–cyclin K and DDB1; raw titration data): 0.6005 and 0.5751 | TR-FRET signal at compound concentration 15.84 nM (CDK12–cyclin K and DDB1; raw titration data): 0.9407 and 0.892 | TR-FRET signal at compound concentration 30.96 nM (CDK12–cyclin K and DDB1; raw titration data): 1.641 and 1.433 | TR-FRET signal at compound concentration 62.6401 nM (CDK12–cyclin K and DDB1; raw titration data): 2.534 and 2.304 | TR-FRET signal at compound concentration 125.28 nM (CDK12–cyclin K and DDB1; raw titration data): 3.191 and 3.0985 | TR-FRET signal at compound concentration 244.8 nM (CDK12–cyclin K and DDB1; raw titration data): 3.469 and 3.534 | TR-FRET signal at compound concentration 993.601 nM (CDK12–cyclin K and DDB1; raw titration data): 3.64 and 3.842 | TR-FRET signal at compound concentration 2001.6 nM (CDK12–cyclin K and DDB1; raw titration data): 3.5487 and 3.801 | EC50 (CDK12–cyclin K and DDB1; [10]): 0.045 ± 0.002 µM | EC50 (CDK12–cyclin K and DDB1; [9]): 0.0451 µM | EC50 (CDK12–cyclin K and DDB1; [11]): 0.0451 µM | DC50 [1, 12]: 0.036 µM
Compound: CC[C@H](CO)Nc1nc(NCc2ccc(-c3cccnc3)cc2)c2ncn(C(C)C)c2n1 [DS45]
EC50 (HEK293T cells): 0.242 µM | Toxicity rescue (HEK293T cells): 1302%
